Measurements from ChEMBL document CHEMBL1129107, “Substituted morpholine-2S-acetic acid derivatives: Sch 50911 and related compounds as novel GABAB antagonists” (Bioorg Med Chem Lett, 1996).
pIC50: −log10 of the molar value.

Key:
[1] = Antagonistic activity was measured by the inhibition of Gamma-aminobutyric acid type B receptor binding to rat brain synaptosomes; format: subcellular
Cavia porcellus [2] = species on record: Cavia porcellus; experiment: Antagonistic activity was measured by the reversal inhibition of EFS stimulated neuronal cholinergic contraction of guinea pig tracheal rings; format: functional; conditions: Trachea
Cavia porcellus [3] = species on record: Cavia porcellus; experiment: Antagonistic activity was measured by the reversal inhibition of EFS stimulated neuronal cholinergic contraction of guinea pig tracheal rings at 300 uM; format: functional; conditions: Trachea

| SMILES | pIC50 [1] | pIC50 (Cavia porcellus [2]) | inhibition at 300 µM (Cavia porcellus [3]) [%] |
| --- | --- | --- | --- |
| O=C(O)CC1CNC2(CC2)CO1 (racemic) | 4.43 |  |  |
| CC1COC(CC(=O)O)CN1 (racemic; form 2) | 5.05 |  |  |
| CC1(C)CO[C@@H](CC(=O)O)CN1 | 5.96 |  |  |
| CC1(C)COC(CC(=O)O)CN1 (racemic) | 5.52 | 5.34 |  |
| CC1(C)COC(CC(=O)O)CN1 (stereo in doubt; 24) | < 4.00 |  |  |
| CC[C@H]1CO[C@H](CC(=O)O)CN1 | < 4.00 |  |  |
| CCC1(CO)COC(CC(=O)O)CN1 (racemic; form 2) | 4.00 |  |  |
| CC[C@@H]1CO[C@H](CC(=O)O)CN1 | < 4.00 |  |  |
| O=C(O)CC1CNC2(CCCC2)CO1 (racemic) | 4.96 |  | 97 |
| CC[C@@H]1CO[C@@H](CC(=O)O)CN1 | 5.00 |  | 95 |
| CCOC(OCC)P(=O)(O)CCCN | 4.21 | 4.19 | 50 |
| O=C(O)CC1CNCCO1 (stereo not given) | < 4.00 |  | 46 |
| CC1(CO)COC(CC(=O)O)CN1 (racemic; form 1) | 5.70 | 5.35 |  |
| CC1(CO)COC(CC(=O)O)CN1 (racemic; form 2) | 5.30 |  |  |
| CCC1(CO)COC(CC(=O)O)CN1 (racemic; form 1) | 4.72 |  | 99 |
| CC1COC(CC(=O)O)CN1 (racemic; form 1) | 4.43 |  | 76 |
